One experiment has as its system HTT mRNA. The experiment can be described thus: RT-qPCR splicing assay, HTT canonical junction (CJ) and alternative junction (AJ) mRNA. The format is cell-based, human. Conditions: Homo sapiens; for AC50: increase in HTT alternative junction (AJ) mRNA, read-out: HTT AJ AC50. Here is the method:
(§1) The expression of a target mRNA was measured by detecting the formation of an exon-exon junction in the canonical transcript (CJ). A compound mediated exon-inclusion event was detected by observing an increase in formation of a new junction with an alternative exon (AJ). Real-time qPCR assays were used to detect these splicing switches and interrogate the potency of various compounds towards different target genes. A high-throughput real time quantitative PCR (RT-qPCR) assay was developed to measure these two isoforms of the mRNA (CJ and AJ) for exemplary genes, such as HTT, SMN2, and MYB, together with a control housekeeping gene, GAPDH or GUSB or PPIA, used for normalization. Briefly, the A673 or K562 cell line was treated with various compounds described herein (e.g., compounds of Formula (I)). After treatment, the levels of the HTT, MYB, or SMN2 mRNA targets were determined from each sample of cell lysate by cDNA synthesis followed by qPCR.
(§2) • Cells-to-CT 1-step kit: ThermoFisher A25602, Cells-to-CT lysis reagent: ThermoFisher 4391851C, TaqMan™ Fast Virus 1-Step Master Mix: ThermoFisher 4444436 • GAPDH: VIC-PL, ThermoFisher 4326317E (Assay: Hs99999905_m1)—used for K562/suspension cell lines • GUSB: VIC-PL, ThermoFisher 4326320E (Assay: Hs99999908_m1)—used for K562/suspension cell lines • PPIA: VIC-PL, ThermoFisher 4326316E (Assay: Hs99999904_m1)—used for A673/adherent cell lines
(§3) The A673 cell line was cultured in DMEM with 10% FBS. Cells were diluted with full growth media and plated in a 96-well plate (15,000 cells in 100 ul media per well). The plate was incubated at 37° C. with 5% CO2 for 24 hours to allow cells to adhere. An 11-point 3-fold serial dilution of the compounds was made in DMSO then diluted in media in an intermediate plate. Compounds were transferred from the intermediate plate to the cell plate with the top dose at a final concentration of 10 uM in the well. Final DMSO concentration was kept at or below 0.25%. The cell plate was returned to the incubator at 37° C. with 5% CO2 for an additional 24 hours.
(§4) The K562 cell line was cultured in IMDM with 10% FBS. For K562, cells were diluted with full growth media and plated in either a 96-well plate (50,000 cells in 50 uL media per well) or a 384-well plate (8,000-40,000 cells in 45 uL media per well). An 11-point 3-fold serial dilution of the compounds were made in DMSO then diluted in media in an intermediate plate. Compound was transferred from the intermediate plate to the cell plate with the top dose at a final concentration of 10 uM in the well. Final DMSO concentration was kept at or below 0.25%. Final volume was 100 uL for 96-well plate and 50 uL for 384-well plate. The cell plate was then placed in an incubator at 37° C. with 5% CO2 for 24 hours.
(§5) The cells were then gently washed with 50 uL-100 uL cold PBS before proceeding to addition of lysis buffer. 30 uL-50 uL of room temperature lysis buffer with DNAse I (and optionally RNAsin) was added to each well. Cells were shaken/mixed thoroughly at room temperature for 5-10 minutes for lysis to take place and then 3 uL-5 uL of room temperature stop solution was added and wells were shaken/mixed again. After 2-5 minutes, the cell lysate plate was transferred to ice for RT-qPCR reaction setup. The lysates could also be frozen at −80° C. for later use.
(§6) In some cases, a direct lysis buffer was used. An appropriate volume of 3× lysis buffer (10 mM Tris, 150 mM NaCl, 1.5%-2.5% Igepal and 0.1-1 U/uL RNAsin, pH 7.4) was directly added to either K562 or A673 cells in media and mixed by pipetting 3 times. The plates were then incubated at room temperature with shaking/rocking for 20-50 minutes to allow for lysis to take place. After this time, the cell lysate plate was transferred to ice to set up for the RT-qPCR reactions. The lysates could also be frozen at −80° C. for later use.
Background: Real-time PCR tracks product formation cycle by cycle.

The test system of the next experiment is MYB mRNA. Kind of experiment: RT-qPCR splicing assay, MYB canonical junction (CJ) and alternative junction (AJ) mRNA. The format is cell-based, human. Particulars: Homo sapiens; for AC50: increase in MYB alternative junction (AJ) mRNA, read-out: MYB AJ AC50. Here is the method: as §1, §2, §3, §4, §5, §6
In another experiment the test system is SMN2 mRNA. Kind of experiment: RT-qPCR splicing assay, SMN2 canonical junction (CJ) mRNA. It is filed as cell-based, human. Particulars: Homo sapiens; Table 5 panel; canonical junction qPCR; compound concentration having 50% response in CJ decrease; read-out: SMN2 IC50 (decrease in CJ mRNA levels). Here is the method:
as §1, §3, §4, §5, §6
(§7) To set up 10 uL RT-qPCR reactions, cell lysates were transferred to 384-well qPCR plates containing the master mix according to the table below. The plates were sealed, gently vortexed, and spun down before the run. The volumes were adjusted accordingly in some instances where the reaction was carried in 20 uL. The table below summarizes the components of the RT-qPCR reactions:
(§8) The RT-qPCR reaction was performed using a QuantStudio (ThermoFisher) under the following fast cycling conditions.

The next experiment concerns Target C. The experiment can be described thus: RT-qPCR splicing assay panel, Target C canonical junction (CJ) mRNA. It is filed as cell-based, human. Conditions: Homo sapiens. Here is the method: as §1, §3, §4, §5, §6, §7, §8
Experiment [1] deals with K562 (human chronic myelogenous leukemia) cells. The experiment can be described thus: Cell Titer Glo 2.0 cell viability assay. Conditions: Homo sapiens, K562, 72 h, K562 cells, 72 hours, Cell Titer Glo 2.0; read-out: K562 GI50. The format is cell-based.
Where [2] appears, read: decrease in HTT canonical junction (CJ) mRNA, RT-qPCR, read-out: HTT CJ IC50.
The mark [3] stands for this setting: Table 5 panel, canonical junction qPCR, compound concentration having 50% response in CJ decrease, read-out: HTT IC50 (decrease in CJ mRNA levels).
[4] abbreviates: Table 5 panel, canonical junction qPCR, compound concentration having 50% response in CJ decrease, read-out: MYB IC50 (decrease in CJ mRNA levels).
The mark [5] stands for this setting: decrease in MYB canonical junction (CJ) mRNA, RT-qPCR, read-out: MYB CJ IC50.
[6] abbreviates: Table 5 panel, canonical junction qPCR, compound concentration having 50% response in CJ decrease, read-out: Target C IC50 (decrease in CJ mRNA levels).
Where [7] appears, read: canonical junction qPCR panel, Table 5, read-out: HTT (decrease in CJ mRNA levels, IC50).
Setting [8] is: canonical junction qPCR panel, Table 5, read-out: MYB (decrease in CJ mRNA levels, IC50).
[9] abbreviates: canonical junction qPCR panel, Table 5, read-out: Target C (decrease in CJ mRNA levels, IC50).

Molecules are shown by their SMILES. Read-outs that look alike come from different tables or passages of the source.

One may read the IC50 as the point on the concentration scale where inhibition reaches its midpoint. In general, AC50 refers to the concentration at which the activity in the assay is half-maximal. `CN1CCN(c2ccc3nc(-c4ccc5nn(C)cc5c4)[nH]c(=O)c3c2)CC1` [Compound 108]: the concentration for half-maximal inhibition (IC50) in the experiment on HTT mRNA (setting [2]) is > 10000 nM; with HTT mRNA (setting [3]) it was > 10000 nM; with MYB mRNA (setting [4]), > 10000 nM; with MYB mRNA (setting [5]) it was > 10000 nM; in the experiment on SMN2 mRNA, 1000 to 10000 nM; in the experiment with Target C (setting [6]) it was 1000 to 10000 nM. Also, the AC50 with HTT mRNA (RT-qPCR) and in the experiment with MYB mRNA (RT-qPCR) was > 10000 nM each time.
On to `Cc1cn2cc(-c3nc4ccc(N5CCN(C)CC5)cc4c(=O)[nH]3)cc(F)c2n1` [Compound 111], for which the IC50 with HTT mRNA (setting [2]) lay in the range of 1000 to 10000 nM; with HTT mRNA (setting [3]), 1000 to 10000 nM; with MYB mRNA (setting [4]) it was 1000 to 10000 nM; in the experiment on MYB mRNA (setting [5]), 1000 to 10000 nM; in the experiment with SMN2 mRNA it was 100 to 1000 nM; in the experiment on Target C (setting [6]), 1000 to 10000 nM. For the same molecule, the AC50 with HTT mRNA (RT-qPCR) and in the experiment on MYB mRNA (RT-qPCR) was 1000 to 10000 nM throughout.
With `Cc1cc(-c2ccc3nc(N4CCN(C)CC4)[nH]c(=O)c3c2)cc2cn(C)nc12` [Compound 165], the IC50 in the experiment with HTT mRNA (setting [2]) was > 10000 nM; in the experiment with HTT mRNA (setting [3]), > 10000 nM; in the experiment with SMN2 mRNA, 100 to 1000 nM. Besides, in the experiment with HTT mRNA (RT-qPCR), the AC50 was > 10000 nM.
As for `Cc1cn2nc(-c3ccc4c(c3)CCN(C3CCNCC3)C4=O)cc(C)c2n1` [Compound 185], the IC50 with HTT mRNA (setting [2]) lay within 1000 to 10000 nM; in the experiment on HTT mRNA (setting [3]), 100 to 1000 nM; in the experiment on MYB mRNA (setting [4]), 1000 to 10000 nM; in the experiment on MYB mRNA (setting [5]), 1000 to 10000 nM; in the experiment with SMN2 mRNA, 100 to 1000 nM. For the same molecule, the AC50 in the experiment with HTT mRNA (RT-qPCR) was in the range of 100 to 1000 nM; in the experiment with MYB mRNA (RT-qPCR), 1000 to 10000 nM.
As a reminder, the GI50 is the concentration that inhibits growth by half. Regarding `Cc1cn2cc(-c3ccc4c(=O)n([C@H]5CCNC6(CC6)C5)ccc4n3)cc(F)c2n1` [Compound 1511], the IC50 in the experiment with HTT mRNA (setting [2]), in the experiment on HTT mRNA (setting [7]), in the experiment with MYB mRNA (setting [8]), in the experiment on MYB mRNA (setting [5]) and in the experiment on Target C (setting [9]) was 100 to 1000 nM each time. In addition, the AC50 in the experiment on HTT mRNA (RT-qPCR) and with MYB mRNA (RT-qPCR) was 100 to 1000 nM throughout. Besides, in experiment [1], the GI50 fell in the range of 100 to 1000 nM.
For `Cc1c(O)c(-c2ncc3c(=O)n([C@@H]4CCNC5(CC5)C4)ccc3n2)cc2cn(C)nc12` [Compound 1513], the IC50 with HTT mRNA (setting [2]) lay within 1000 to 10000 nM; with HTT mRNA (setting [7]), 100 to 1000 nM; in the experiment on MYB mRNA (setting [8]) it was 100 to 1000 nM; in the experiment with MYB mRNA (setting [5]), 100 to 1000 nM; in the experiment on Target C (setting [9]), 1000 to 10000 nM. The AC50 in the experiment with HTT mRNA (RT-qPCR) and in the experiment on MYB mRNA (RT-qPCR) was 100 to 1000 nM in each case. Further, the concentration for 50% growth inhibition (GI50) in experiment [1] fell in the range of 100 to 1000 nM.
In the case of `Cc1c(O)c(-c2nc(C)c3c(=O)n([C@H]4CCNC5(CC5)C4)ccc3n2)cc2cn(C)nc12` [Compound 1514, 6-[(7S)-4-azaspiro[2.5]octan-7-yl]-2-(6-hydroxy-2,7-dimethyl-indazol-5-yl)-4-methyl-pyrido[4,3-d]pyrimidin-5-one], the IC50 in the experiment with HTT mRNA (setting [2]) is 1000 to 10000 nM; in the experiment on HTT mRNA (setting [7]), > 10000 nM; with MYB mRNA (setting [8]), 100 to 1000 nM; in the experiment on MYB mRNA (setting [5]) it was 100 to 1000 nM; in the experiment on Target C (setting [9]), 1000 to 10000 nM. The values for the AC50 in the experiment with HTT mRNA (RT-qPCR) and in the experiment on MYB mRNA (RT-qPCR) were > 10000 nM and 100 to 1000 nM, respectively. Besides, in experiment [1], the GI50 lay in the range of 100 to 1000 nM.
`Cc1c(O)c(-c2nc(C)c3c(=O)n(C4C[C@H](C)N[C@@H](C)C4)ccc3n2)cc2cn(C)nc12` (stereo partly shown) [Compound 1516]: the IC50 in the experiment with HTT mRNA (setting [2]) was 1000 to 10000 nM; in the experiment with HTT mRNA (setting [7]), 1000 to 10000 nM; in the experiment on MYB mRNA (setting [8]), 100 to 1000 nM; in the experiment on MYB mRNA (setting [5]), 100 to 1000 nM; in the experiment with Target C (setting [9]), > 10000 nM. In addition, the AC50 lay in the range of 1000 to 10000 nM in the experiment on HTT mRNA (RT-qPCR) and 100 to 1000 nM in the experiment on MYB mRNA (RT-qPCR). For the same molecule, in experiment [1], the GI50 is 100 to 1000 nM.
As to `Cc1cn2nc(-c3cc(C)c4c(=O)n(C5CCNC6(CC6)C5)ncc4n3)cc(C)c2n1` (stereo not shown) [Compound 1552, 6-(4-azaspiro[2.5]octan-7-yl)-2-(2,8-dimethylimidazo[1,2-b]pyridazin-6-yl)-4-methyl-pyrido[2,3-d]pyridazin-5-one], the IC50 with HTT mRNA (setting [2]), in the experiment on HTT mRNA (setting [7]), with MYB mRNA (setting [8]), in the experiment on MYB mRNA (setting [5]) and in the experiment on Target C (setting [9]) was 100 to 1000 nM each time. In addition, the AC50 with HTT mRNA (RT-qPCR) and in the experiment with MYB mRNA (RT-qPCR) was 100 to 1000 nM throughout. For the same molecule, the GI50 in experiment [1] is 100 to 1000 nM.

(Values after patent US20250332173A1, “COMPOUNDS AND METHODS FOR MODULATING NUCLEIC ACID SPLICING” (REMIX THERAPEUTICS INC., priority 2021, published 2025).)
